Measured values reported in patent publication US8404670B2 (Sunovion Pharmaceuticals Inc., priority 2009, dated 2013).

These compounds were tested against T1, human histamine H3 receptor (Homo sapiens, UniProt Q9Y5N1) (assay: H3 GTPγS assay (SPA method), histamine H3 in vitro assay). Settings: GTPγ[35S] binding to membranes of cells expressing human H3; antagonist mode with R-γ-Me-Histamine at EC80 (30 nM); in one embodiment HCl salts tested; read-out: Potency (functional potency as indicated by IC50).
T1 construct: host or cells: cells expressing the human H3 receptor
Format: biochemical

T1 sequence (Q9Y5N1 whole entry): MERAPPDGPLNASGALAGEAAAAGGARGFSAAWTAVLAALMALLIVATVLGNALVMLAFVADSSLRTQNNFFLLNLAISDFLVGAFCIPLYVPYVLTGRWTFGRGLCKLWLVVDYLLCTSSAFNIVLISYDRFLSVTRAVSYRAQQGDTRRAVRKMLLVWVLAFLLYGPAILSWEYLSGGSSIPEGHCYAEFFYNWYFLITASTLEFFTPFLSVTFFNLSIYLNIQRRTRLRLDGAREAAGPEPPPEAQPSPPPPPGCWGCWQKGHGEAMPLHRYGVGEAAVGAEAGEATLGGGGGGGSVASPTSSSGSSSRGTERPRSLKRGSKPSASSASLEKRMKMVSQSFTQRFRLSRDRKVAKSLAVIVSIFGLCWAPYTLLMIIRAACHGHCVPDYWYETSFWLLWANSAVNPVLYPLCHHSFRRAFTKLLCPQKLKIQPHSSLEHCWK

Question: For NCc1ccc(-c2ccc3c(c2)nc2n3CCN(C3CCC3)CC2)cc1 [Compound 1, 3-cyclobutyl-9-(4-(aminomethyl)phenyl)-2,3,4,5-tetrahydro-1H-[1.4]diazepino[1,7-a]benzimidazole], which IC50 is on record?
Answer: ≤ 10 nM

Question: How did the IC50 turn out when N#Cc1ccc(OCc2ccc3nc4n(c3c2)CCN(C2CCC2)CC4)nc1 [Compound 112, 6-((3-cyclobutyl-2,3,4,5-tetrahydro-1H-[1,4]diazepino[1,7-a]benzimidazol-8-yl)methoxy)nicotino-nitrile] was run?
Answer: ≤ 1000 nM

Question: c1ccc(N2CCN(c3ccc4nc5n(c4c3)CCN(C3CCC3)CC5)CC2)nc1 [Compound 234, 3-cyclobutyl-9-(4-(pyridin-2-yl)piperazin-1-yl)-2,3,4,5-tetrahydro-1H-benzo[4,5]imidazo[1,2-d][1,4]diazepine] was tested. Which IC50 did it give?
Answer: ≤ 100 nM

Question: OCc1ccc2c(c1)nc1n2CCN(C2CCC2)CC1 [Compound 106, 2-(3-cyclobutyl-2,3,4,5-tetrahydro-1H-[1,4]diazepino[1,7-a]benzimidazol-9-yl)methanol] was tested. Which IC50 did it give?
Answer: ≤ 1000 nM

Question: With COc1ccnc(Oc2ccc3nc4n(c3c2)CCN(C2CCC2)CC4)n1 [Compound 78] as the compound, how does the IC50 read?
Answer: ≤ 1000 nM

Question: For O=c1cccnn1-c1ccc2c(c1)nc1n2CCN(C2CCC2)CC1 [Compound 71, 2-(3-cyclobutyl-2,3,4,5-tetrahydro-1H-[1,4]diazepino[1,7-a]benzimidazol-9-yl)pyridazin-3(2H)-one], which IC50 is on record?
Answer: ≤ 1000 nM

Question: O=C(NCc1ccc2c(c1)nc1n2CCN(C2CCC2)CC1)OCc1ccccc1 [Compound 141, benzyl((3-cyclobutyl-2,3,4,5-tetrahydro-1H-benzo[4,5]imidazo[1,2-d][1,4]diazepin-8-yl)methyl)carbamate] was tested. Which IC50 did it give?
Answer: ≤ 100 nM

Question: With CN(C)Cc1ccc2c(c1)nc1n2CCN(C2CCC2)CC1 [Compound 105] as the compound, how does the IC50 read?
Answer: ≤ 100 nM

Question: With CC(=O)Nc1ccc(-c2ccc3c(c2)nc2n3CCN(C3CCN(C)CC3)CC2)cc1 [Compound 9, N-(4-(3-(1-methylpiperidin-4-yl)-2,3,4,5-tetrahydro-1H-[1,4]diazepino[1,7-a]benzimidazol-9-yl)phenyl)acetamide] as the compound, how does the IC50 read?
Answer: ≤ 1000 nM

Question: How did the IC50 turn out when COc1ccnc(Nc2ccc3c(c2)nc2n3CCN(C3CCC3)CC2)n1 [Compound 64] was run?
Answer: ≤ 100 nM

Question: Which IC50 does the source give for Cc1nnnn1-c1ccc2c(c1)nc1n2CCN(C2CCC2)CC1 [Compound 156, 3-cyclobutyl-8-(5-methyl-1H-tetrazol-1-yl)-2,3,4,5-tetrahydro-1H-benzo[4,5]imidazo[1,2-d][1,4]diazepine] here?
Answer: ≤ 100 nM

Question: Which IC50 does the source give for O=C(c1cnccn1)N1CCN(c2ccc3c(c2)nc2n3CCN(C3CCC3)CC2)CC1 [Compound 169, (4-(3-cyclobutyl-2,3,4,5-tetrahydro-1H-benzo[4,5]imidazo[1,2-d][1,4]diazepin-8-yl)piperazin-1-yl)(pyrazin-2-yl)methanone] here?
Answer: ≤ 100 nM

Question: For c1cnc(N2Cc3cc4nc5n(c4cc3C2)CCN(C2CCC2)CC5)nc1 [Compound 148, 8-cyclobutyl-2-(pyrimidin-2-yl)-1,2,3,6,7,8,9,10-octahydro-[1,4]diazepino[1′,7′:1,2]imidazo[4,5-f]isoindole], which IC50 is on record?
Answer: ≤ 100 nM

Question: c1cnc(OCc2ccc3nc4n(c3c2)CCN(C2CCC2)CC4)cn1 [Compound 113, 3-cyclobutyl-9-((pyrazin-2-yloxy)methyl)-2,3,4,5-tetrahydro-1H-[1,4]diazepino[1,7-a]benzimidazole] was tested. Which IC50 did it give?
Answer: ≤ 1000 nM

Question: How did the IC50 turn out when O=C1c2cc3nc4n(c3cc2C(=O)N1Cc1ccccc1)CCN(C1CCC1)CC4 [Compound 143, 2-benzyl-8-cyclobutyl-7,8,9,10-tetrahydro-[1,4]diazepino[1′,7′:1,2]imidazo[4,5-f]isoindole-1,3(2H,6H)-dione] was run?
Answer: ≥ 1000 nM

Question: NCc1ccc(-c2ccc3c(c2)nc2n3CCN(Cc3cnc[nH]3)CC2)cc1 [Compound 17] was tested. Which IC50 did it give?
Answer: ≥ 1000 nM

Question: How did the IC50 turn out when CC(=O)N1CCN(c2ccc3c(c2)nc2n3CCN(C3CCC3)CC2)CC1 [Compound 167, 1-(4-(3-cyclobutyl-2,3,4,5-tetrahydro-1H-benzo[4,5]imidazo[1,2-d][1,4]diazepin-8-yl)piperazin-1-yl)ethanone] was run?
Answer: ≤ 10 nM

Question: c1ccc2c(c1)CCN(Cc1ccc3c(c1)nc1n3CCN(C3CCC3)CC1)C2 [Compound 163, 3-cyclobutyl-8-((3,4-dihydroisoquinolin-2(1H)-yl)methyl)-2,3,4,5-tetrahydro-1H-benzo[4,5]imidazo[1,2-d][1,4]diazepine] was tested. Which IC50 did it give?
Answer: ≤ 10 nM

Question: Which IC50 does the source give for c1coc(-c2cnc3c(c2)nc2n3CCN(C3CCC3)CC2)c1 [Compound 238] here?
Answer: ≤ 1000 nM

Question: With c1csc(N2CCN(c3ccc4c(c3)nc3n4CCN(C4CCC4)CC3)CC2)n1 [Compound 232, 2-(4-(3-cyclobutyl-2,3,4,5-tetrahydro-1H-benzo[4,5]imidazo[1,2-d][1,4]diazepin-8-yl)piperazin-1-yl)thiazole] as the compound, how does the IC50 read?
Answer: ≤ 10 nM

Question: For O=C(c1ccc2nc3n(c2c1)CCN(C1CCC1)CC3)N1CCOCC1 [Compound 84], which IC50 is on record?
Answer: ≤ 1000 nM

Question: How did the IC50 turn out when NCCc1ccc2c(c1)nc1n2CCN(C2CCC2)CC1 [Compound 138, 2-(3-cyclobutyl-2,3,4,5-tetrahydro-1H-benzo[4,5]imidazo[1,2-d][1,4]diazepin-8-yl)ethanamine] was run?
Answer: ≤ 100 nM

Question: Which IC50 does the source give for Cc1nn(C)c(C)c1-c1ccc2c(c1)nc1n2CCN(C2CCC2)CC1 [Compound 26] here?
Answer: ≤ 1000 nM

Question: With N#Cc1ccc(-c2ccc3c(c2)nc2n3CCN(C3CCOCC3)CC2)cc1 [Compound 38] as the compound, how does the IC50 read?
Answer: ≤ 100 nM

Question: How did the IC50 turn out when CNC(=O)c1ccc(Oc2ccc3c(c2)nc2n3CCN(C3CCC3)CC2)nc1 [Compound 50, 6-(3-cyclobutyl-2,3,4,5-tetrahydro-1H-[1,4]diazepino[1,7-a]benzimidazol-9-yloxy)-N-methylnicotinamide] was run?
Answer: ≤ 10 nM

Question: For c1cc2c(cc1N1CCN(C3CCOCC3)CC1)nc1n2CCN(C2CCC2)CC1 [Compound 103, 3-cyclobutyl-9-(4-(tetrahydro-2H-pyran-4-yl)piperazin-1-yl)-2,3,4,5-tetrahydro-1H-[1,4]diazepino[1,7-a]benzimidazole], which IC50 is on record?
Answer: ≤ 10 nM

Question: For c1cc2nc(-c3ccc4c(c3)nc3n4CCN(C4CCC4)CC3)cnc2[nH]1 [Compound 199, 3-cyclobutyl-8-(5H-pyrrolo[2,3-b]pyrazin-2-yl)-2,3,4,5-tetrahydro-1H-benzo[4,5]imidazo[1,2-d][1,4]diazepine], which IC50 is on record?
Answer: ≤ 100 nM

Question: With CC(=O)N1CCc2cc3nc4n(c3cc2C1)CCN(C1CCC1)CC4 [Compound 194, 1-(9-cyclobutyl-3,4,8,9,10,11-hexahydro-1H-[1,4]diazepino[1′,7′:1,2]imidazo[4,5-g]isoquinolin-2(7H)-yl)ethanone] as the compound, how does the IC50 read?
Answer: ≤ 100 nM

Question: With CC(=O)N1CCc2cc3c(cc2C1)nc1n3CCN(C2CCC2)CC1 [Compound 187, 1-(9-cyclobutyl-3,4,8,9,10,11-hexahydro-1H-[1,4]diazepino[7′,1′:2,3]imidazo[4,5-g]isoquinolin-2(7H)-yl)ethanone] as the compound, how does the IC50 read?
Answer: ≤ 10 nM

Question: How did the IC50 turn out when c1cc2c(cc1-n1cnnn1)nc1n2CCN(C2CCC2)CC1 [Compound 154, 3-cyclobutyl-8-(1H-tetrazol-1-yl)-2,3,4,5-tetrahydro-1H-benzo[4,5]imidazo[1,2-d][1,4]diazepine] was run?
Answer: ≤ 100 nM

Question: How did the IC50 turn out when c1ncc(-c2ccc3c(c2)nc2n3CCN(C3CCC3)CC2)cn1 [Compound 126, 3-cyclobutyl-8-(pyrimidin-5-yl)-2,3,4,5-tetrahydro-1H-benzo[4,5]imidazo[1,2-d][1,4]diazepine] was run?
Answer: ≤ 10 nM
